Measurements reported in patent US8084647B2, “Two-photon probe for real-time monitoring of intracellular calcium ions, method for preparing the probe and method for real-time monitoring of intracellular calcium ions using the probe” (Korea University Industry and Academy Cooperation Foundation, priority 2007, dated 2011).
Where two headings read alike, the source gives them in different places.

Columns and labels:
[1] = Two-photon action spectra / two-photon cross section; assay type: physicochemical
Procedure: Thus, TPM images for samples stained with the compound of Formula 4 would be much brighter than those stained with commercial probe. In addition, the two-photon fluorescence enhancement factor (TFEF) estimated from the two-photon titration curve was 44 (Table 2), a value that allowed detection of Ca^2+ by TPM.
The two-photon cross section (δ) was determined by using femto second (fs) fluorescence measurement technique (S. K. Lee, W. J. Yang, J. J. Choi, C. H. Kim, S.-J, Jeon, B. R. Cho, Org. Lett. 2005, 7, 323-326).

[2] = system: acute rat hypothalamic slice; test: Two-photon microscopy of acute rat hypothalamic slices; assay type: cell-based
Procedure: Slices were prepared from the hippocampi and the hypothalmic of 2-day-old rat (SD). Coronal slices were cut into 400 μm thick using a vibrating-blade microtome in artificial cerebrospinal fluid (ACSF; 138.6 mM NaCl, 3.5 mM KCl, 21 mM NaHCO3, 0.6 mM NaH2PO4, 9.9 mM D-glucose, 1 mM CaCl2, and 3 mM MgCl2). Slices were incubated with the compound (10 μM) of Formula 7 in ACSF bubbled with 95% O2 and 5% CO2 for 30 min at 37° C. Slices were then washed three times with ACSF and transferred to glass-bottomed dishes (MatTek) and observed in a spectral confocal multi photon microscope.

astrocytes = test: Two-photon microscopy of cultured astrocytes; assay type: cell-based, rat; conditions: cultured astrocytes labeled with 2 μM probe
Procedure: Astrocytes were taken from cerebral cortices of 1-day-old rats (Sprague-Dawley; SD). Cerebral cortices were dissociated in Hank's balanced salt solution (HBSS; Gibco BRL, Gaithersburg, Md., USA) containing 3 U/ml papain (Worthington Biochemical Corporation, NJ, USA) and plated in 75 mm flasks. To prepare purified astrocytes culture, flasks were shaken for 6 h on a shaker at 37° C., and the floating cells that were displaced into the media were removed. Astrocytes were passaged with 5 min exposure to 0.25% trypsin and replated onto poly-D-lysin-coated glass coverslips at 50˜100 cells/mm^2 and were maintained in Dulbecco's modified Eagle's medium (DMEM; Gibco) supplemented with penicillin/streptomycin and 10% fetal bovine serum (FBS; Gibco) in a CO2 incubator at 37° C. After 7-15 days in vitro, astrocytes were washed three times with serum-free media, and then incubated with 2 μM of the compound of Formula 7 in serum-free media for 20 min at 37° C. The cells were washed three times with phosphate buffered saline (PBS; Gibco) and then imaged after further incubation in colorless serum-free media for 15 min.
The spontaneous increase in [Ca^2+]i also propagated between astrocytes, as indicated by the delayed activity in the neighboring astrocyte (FIGS. 15b and 15d).

[3] = Reactivity for various metal ions (FIG. 10)
Description: FIG. 10 is a graph showing the reactivity of the compound of Formula 4 for various metal ions;

[4] = One-photon fluorescence titration with Ca2+ (Kd^OP, enhancement factor, Hill plot); assay type: binding; conditions: presence of 39 μM Ca2+
Procedure: A series of calibration solutions containing various [Ca^2+] was prepared by mixing two solutions (solution A containing 10 mM K2EGTA and solution B containing 10 mM CaEGTA) in various ratios. Both solutions contained the compound (1 μM) of Formula 4, 100 mM KCl, 30 mM MOPS, and they were adjusted to pH 7.2.
Then, 203 μl of this solution was discarded and replaced by 203 μl of solution B (39 μM free Ca^2+), and the spectrum was recorded. This brings the CaEGTA concentration to 1.00 mM and the [Ca^2]free to about 0.017 μM with no change in the concentration of the probe or of the total EGTA. The [Ca^2+]free is calculated from the Kd of EGTA for Ca^2+ (150.5 nM) using Equation 2: […]
where F is the observed fluorescence intensity, Fmin is the minimum fluorescence intensity, and Fmax is the maximum fluorescence intensity. The Kd value that best fits the titration curve (FIG. 6) with Equation 5 was calculated by using the Excel program as reported (J. R. Long, R. S. Drago, J. Chem. Ed. 1982, 59, 1037; K. Hirose, J. Incl. Phenom. Macrocycl. Chem. 2001, 39, 193).
The dissociation constants (Kd^OP) were calculated from the fluorescence titration curves (FIG. 6), as reported (J. R. Long, R. S. Drago, J. Chem. Educ. 1982, 59, 1037-1039).

[5] = Effect of pH on the reactivity (FIG. 11); assay type: physicochemical; conditions: biologically relevant pH range
Description: FIG. 11 is a graph showing the effect of pH on the reactivity of the compound of Formula 4;

[6] = One-photon absorption and emission spectra, fluorescence quantum yield; assay type: physicochemical; conditions: for Φ fluorescence quantum yield: ±10%
Procedure: The absorption spectra of the compound of Formula 7 were recorded on a Hewlett-Packard 8453 diode array spectrophotometer, and the fluorescence spectra of the compound were obtained with Amico-Bowman series 2 luminescence spectrometer with a 1 cm standard quartz cell. The fluorescence quantum yield of the compound was determined by using Coumarin 307 as the reference by the literature method (J. N. Demas, G. A. Crosby, J. Phys. Chem. 1971, 75, 991-1024.).

[7] = Two-photon excited fluorescence (TPEF) titration with Ca2+ (Kd^TP); assay type: binding; conditions: estimated from the two-photon titration curve
Description: In order to determine the Kd^TP for the two-photon process, the TPEF spectra were obtained with a DM IRE2 Microscope (Leica) excited by a mode-locked titanium-sapphire laser source (Coherent Chameleon, 90 MHz, 200 fs) set at wavelength 780 nm and output power 1230 mW, which corresponded to approximately 10 mW average power in the focal plane. The TPEF titration curves (FIG. 6) were obtained and fitted to Equation 3.

[8] = previously reported value, cited from earlier work
[9] = prolonged observation time in tissue
[10] = 30 mM MOPS, 100 mM KCl, 10 mM EGTA, pH 7.2, absence of free Ca2+
[11] = MOPS buffer pH 7.2, presence of 39 μM free Ca2+

Molecule: CC(=O)c1ccc2cc(N(C)CC(=O)Nc3ccc(N(CC(=O)O)CC(=O)O)c(OCCOc4ccccc4N(CC(=O)O)CC(=O)O)c3)ccc2c1 [Formula 4]
- Φδ / TPEF relative to OG1-Ca2+ ([1]; Ca2+ complexes in buffer): 5 fold
- Φδ two-photon action cross section ([1]; presence of 39 μM free Ca2+): 110 GM
- λmax^(2) of the two-photon excitation spectra ([1]; presence of 39 μM free Ca2+): 780 nm
- δ peak two-photon cross section ([1]; presence of 39 μM free Ca2+, ±15%): 230 GM
- imaging depth in live tissue ([2]; TPM): ~170 μm
- photo-stability [2, 9]: high photo-stability
- photo-toxicity [2, 9]: low photo-toxicity
- visualization of calcium waves by TPM (astrocytes): clearly capable of visualizing the intra- and intercellular calcium waves
- response toward CO^2+ [3]: much weaker response
- response toward Cu^2+ [3]: no response
- response toward Fe^2+ [3]: much weaker response
- response toward Mg^2+ [3]: much weaker response
- response toward Mn^2+ [3]: modest response
- response toward Zn^2+ [3]: modest response
- FEF^OP fluorescence enhancement factor (F − Fmin)/Fmin, one-photon [4]: 40
- fluorescence enhancement factor relative to OG1 [4]: ~3 fold
- pH sensitivity [5]: pH-insensitive
- λmax^(l) one-photon absorption [6, 10]: 365 nm
- λmax^fl one-photon emission [6, 10]: 498 nm
- Φ fluorescence quantum yield [6, 10]: 0.012
- λmax^(l) one-photon absorption [6, 11]: 365 nm
- λmax^fl one-photon emission [6, 11]: 498 nm
- Φ fluorescence quantum yield [6, 11]: 0.49
- FEF^TP two-photon fluorescence enhancement factor [7]: 44

Molecule: Oregon Green 488 BAPTA-1 [OG1]
- FEF^OP fluorescence enhancement factor (F − Fmin)/Fmin, one-photon [8]: 14
- FEF^OP fluorescence enhancement factor (F − Fmin)/Fmin, one-photon ([8]; listed as OG1 + Ca^2+): 14^[l]/nd
